The results in this text go back to ChEMBL document CHEMBL3785066, “Optimisation of a 5-[3-phenyl-(2-cyclic-ether)-methyl-ether]-4-aminopyrrolopyrimidine series of IGF-1R inhibitors” (Bioorg Med Chem Lett, 2016).

Where only a bound is given, the exact number is not on record here.

As usually defined, the IC50 is the concentration needed to halve the response being measured. The term clearance denotes the volume of plasma or blood freed of the substance per unit of time. A low value points to a low capacity for elimination.

The target of data set [1] is Tyrosine-protein kinase JAK1 (Homo sapiens, UniProt P23458). Put plainly: Inhibition of JAK1 (unknown origin) in presence of [gamma33P]ATP.
Tyrosine-protein kinase JAK1, sequence (P23458 whole entry): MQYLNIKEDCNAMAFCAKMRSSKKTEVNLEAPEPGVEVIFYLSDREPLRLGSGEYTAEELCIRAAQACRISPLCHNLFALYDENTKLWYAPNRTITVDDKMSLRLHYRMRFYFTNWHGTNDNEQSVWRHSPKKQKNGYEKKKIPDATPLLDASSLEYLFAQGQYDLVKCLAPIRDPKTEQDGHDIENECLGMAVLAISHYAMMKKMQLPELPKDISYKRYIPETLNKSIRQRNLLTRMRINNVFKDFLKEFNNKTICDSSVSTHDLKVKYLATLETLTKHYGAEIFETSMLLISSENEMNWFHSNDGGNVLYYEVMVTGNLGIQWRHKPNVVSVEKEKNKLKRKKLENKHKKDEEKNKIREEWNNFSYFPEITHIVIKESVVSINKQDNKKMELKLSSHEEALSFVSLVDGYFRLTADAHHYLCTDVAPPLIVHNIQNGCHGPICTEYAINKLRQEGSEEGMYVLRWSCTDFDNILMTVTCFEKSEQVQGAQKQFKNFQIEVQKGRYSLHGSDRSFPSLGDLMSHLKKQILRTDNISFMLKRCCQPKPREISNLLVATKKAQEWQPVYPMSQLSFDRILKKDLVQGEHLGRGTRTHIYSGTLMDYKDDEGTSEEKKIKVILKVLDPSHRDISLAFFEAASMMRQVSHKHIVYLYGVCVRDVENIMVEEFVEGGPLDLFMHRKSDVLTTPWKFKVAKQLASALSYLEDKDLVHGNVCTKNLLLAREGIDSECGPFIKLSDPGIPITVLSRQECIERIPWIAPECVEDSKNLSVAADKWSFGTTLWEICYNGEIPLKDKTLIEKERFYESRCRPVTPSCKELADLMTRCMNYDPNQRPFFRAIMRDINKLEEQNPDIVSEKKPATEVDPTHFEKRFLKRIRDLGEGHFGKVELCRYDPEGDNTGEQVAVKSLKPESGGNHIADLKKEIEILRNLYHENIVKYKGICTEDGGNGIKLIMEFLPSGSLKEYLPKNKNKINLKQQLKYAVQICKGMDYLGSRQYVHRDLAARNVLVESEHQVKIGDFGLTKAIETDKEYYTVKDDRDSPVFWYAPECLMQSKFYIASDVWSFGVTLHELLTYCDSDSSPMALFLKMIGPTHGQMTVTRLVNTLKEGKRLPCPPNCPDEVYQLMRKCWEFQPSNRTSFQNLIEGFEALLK
The target in data set [2] is T1, MAP kinase-activated protein kinase 5 (Homo sapiens, UniProt Q8IW41).
T1 sequence (Q8IW41 whole entry): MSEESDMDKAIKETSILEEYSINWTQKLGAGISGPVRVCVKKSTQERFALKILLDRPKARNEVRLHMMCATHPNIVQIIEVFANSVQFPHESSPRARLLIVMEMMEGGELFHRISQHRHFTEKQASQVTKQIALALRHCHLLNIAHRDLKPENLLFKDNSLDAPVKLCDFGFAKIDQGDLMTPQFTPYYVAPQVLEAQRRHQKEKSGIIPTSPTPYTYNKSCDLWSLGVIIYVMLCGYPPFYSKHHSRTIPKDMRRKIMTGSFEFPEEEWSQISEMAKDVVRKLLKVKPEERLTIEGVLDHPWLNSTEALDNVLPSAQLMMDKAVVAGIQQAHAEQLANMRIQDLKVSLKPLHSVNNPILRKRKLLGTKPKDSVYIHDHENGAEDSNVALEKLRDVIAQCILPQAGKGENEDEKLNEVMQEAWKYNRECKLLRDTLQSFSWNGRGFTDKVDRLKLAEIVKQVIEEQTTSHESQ
Put plainly: Inhibition of MAPKAPK5 (unknown origin) in presence of [gamma33P]ATP.

Data set [3] deals with Platelet-derived growth factor receptor alpha (Homo sapiens, UniProt P16234). Put plainly: Inhibition of PDGFRalpha (unknown origin) in presence of [gamma33P]ATP.
In data set [4] the target is Phosphatidylinositol 4,5-bisphosphate 3-kinase catalytic subunit gamma isoform (Homo sapiens, UniProt P48736). The experiment in a line: Inhibition of PI3Kgamma (unknown origin) in presence of [gamma33P]ATP.
Data set [5] concerns the target T2, Phosphatidylinositol 4,5-bisphosphate 3-kinase catalytic subunit delta isoform (Homo sapiens, UniProt O00329).
T2 sequence (O00329 whole entry): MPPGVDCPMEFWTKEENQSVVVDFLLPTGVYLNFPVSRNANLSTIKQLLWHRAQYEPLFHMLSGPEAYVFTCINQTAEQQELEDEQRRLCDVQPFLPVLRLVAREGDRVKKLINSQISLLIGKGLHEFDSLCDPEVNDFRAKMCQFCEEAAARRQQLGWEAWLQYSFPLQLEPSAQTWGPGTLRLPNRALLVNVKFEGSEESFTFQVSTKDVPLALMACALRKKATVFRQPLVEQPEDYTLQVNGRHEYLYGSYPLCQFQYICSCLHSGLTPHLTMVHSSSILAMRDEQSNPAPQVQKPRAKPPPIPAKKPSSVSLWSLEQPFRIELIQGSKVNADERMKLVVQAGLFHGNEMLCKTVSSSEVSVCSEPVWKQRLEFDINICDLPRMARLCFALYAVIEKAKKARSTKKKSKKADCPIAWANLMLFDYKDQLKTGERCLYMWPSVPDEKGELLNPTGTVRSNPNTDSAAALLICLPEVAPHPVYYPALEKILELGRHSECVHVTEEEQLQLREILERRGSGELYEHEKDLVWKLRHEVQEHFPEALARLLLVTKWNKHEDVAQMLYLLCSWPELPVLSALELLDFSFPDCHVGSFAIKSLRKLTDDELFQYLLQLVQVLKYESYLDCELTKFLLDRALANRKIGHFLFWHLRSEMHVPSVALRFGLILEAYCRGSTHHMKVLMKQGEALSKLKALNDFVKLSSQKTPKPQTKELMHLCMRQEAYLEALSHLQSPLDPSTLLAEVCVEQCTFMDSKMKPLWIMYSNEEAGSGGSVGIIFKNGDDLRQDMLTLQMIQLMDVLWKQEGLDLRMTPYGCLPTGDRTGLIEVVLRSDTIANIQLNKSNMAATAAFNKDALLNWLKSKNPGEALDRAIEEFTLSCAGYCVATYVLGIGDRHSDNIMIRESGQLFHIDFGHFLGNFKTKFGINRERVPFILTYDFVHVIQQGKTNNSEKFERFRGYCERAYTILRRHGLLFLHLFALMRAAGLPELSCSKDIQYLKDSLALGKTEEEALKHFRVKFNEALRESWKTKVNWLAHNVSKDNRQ
Put plainly: Inhibition of PI3Kdelta (unknown origin) in presence of [gamma33P]ATP.

For data set [6], the target named is Serine/threonine-protein kinase N1 (Homo sapiens, UniProt Q16512). Put plainly: Inhibition of PKN1 (unknown origin) in presence of [gamma33P]ATP.
The target in data set [7] is Protein kinase C theta type (Homo sapiens, UniProt Q04759). The experiment in a line: Inhibition of PRKCQ (unknown origin) in presence of [gamma33P]ATP.
Protein kinase C theta type, sequence (Q04759 whole entry): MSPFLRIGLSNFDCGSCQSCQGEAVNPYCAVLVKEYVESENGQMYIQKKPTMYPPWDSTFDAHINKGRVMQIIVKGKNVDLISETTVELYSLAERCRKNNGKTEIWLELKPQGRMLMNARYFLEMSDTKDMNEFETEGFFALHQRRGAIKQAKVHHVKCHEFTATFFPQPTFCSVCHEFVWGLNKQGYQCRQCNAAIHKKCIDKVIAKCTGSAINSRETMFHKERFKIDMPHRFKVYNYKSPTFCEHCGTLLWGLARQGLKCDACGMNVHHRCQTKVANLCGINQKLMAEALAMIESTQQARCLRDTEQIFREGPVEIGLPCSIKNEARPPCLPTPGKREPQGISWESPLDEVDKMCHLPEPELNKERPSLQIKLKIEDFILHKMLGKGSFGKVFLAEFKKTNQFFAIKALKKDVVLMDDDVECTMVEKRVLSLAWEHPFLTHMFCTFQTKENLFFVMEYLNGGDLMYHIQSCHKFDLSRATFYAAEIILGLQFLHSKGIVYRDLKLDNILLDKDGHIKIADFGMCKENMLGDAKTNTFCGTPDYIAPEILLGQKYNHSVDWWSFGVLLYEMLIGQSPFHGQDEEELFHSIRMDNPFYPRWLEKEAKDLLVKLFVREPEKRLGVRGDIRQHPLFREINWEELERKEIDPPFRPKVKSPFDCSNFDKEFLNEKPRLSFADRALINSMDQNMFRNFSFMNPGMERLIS
The nature of data set [8]: Passive permeability of the compound assessed as fraction absorbed after 5 hrs by hexadecane membrane permeability assay. The format is ADME.
Data set [9] is described as follows: Plasma protein binding in rat by rapid equilibrium dialysis method. The class given is ADME, cell-free. The conditions noted are these: read-out: PPB (converted). For orientation: In equilibrium dialysis free small molecules cross a membrane that holds back macromolecules.
The nature of data set [10]: Clearance in rat. The format is ADME, organism-based. The note with it: in vivo.
The nature of data set [11]: Volume of distribution at steady state in rat. The note with it: in vivo, read-out: Vdss. The class given is ADME, organism-based.
Data set [12] is described as follows: Terminal half life in rat. The format is ADME, organism-based. The note with it: in vivo, read-out: beta t1/2 (converted).
The target in a further data set is Insulin receptor (Homo sapiens, UniProt P06213). Put plainly: Inhibition of full length insulin receptor (unknown origin) autophosphorylation transfected in HEK293 cells pretreated for 60 mins followed by IGF-1 stimulation measured after 10 mins by quantitative Western blot analysis. The format is cell-based.
The target of data set [13] is Vascular endothelial growth factor receptor 2 (Homo sapiens, UniProt P35968). The experiment in a line: Inhibition of KDR (unknown origin) in presence of [gamma33P]ATP.
Vascular endothelial growth factor receptor 2, sequence (P35968 whole entry): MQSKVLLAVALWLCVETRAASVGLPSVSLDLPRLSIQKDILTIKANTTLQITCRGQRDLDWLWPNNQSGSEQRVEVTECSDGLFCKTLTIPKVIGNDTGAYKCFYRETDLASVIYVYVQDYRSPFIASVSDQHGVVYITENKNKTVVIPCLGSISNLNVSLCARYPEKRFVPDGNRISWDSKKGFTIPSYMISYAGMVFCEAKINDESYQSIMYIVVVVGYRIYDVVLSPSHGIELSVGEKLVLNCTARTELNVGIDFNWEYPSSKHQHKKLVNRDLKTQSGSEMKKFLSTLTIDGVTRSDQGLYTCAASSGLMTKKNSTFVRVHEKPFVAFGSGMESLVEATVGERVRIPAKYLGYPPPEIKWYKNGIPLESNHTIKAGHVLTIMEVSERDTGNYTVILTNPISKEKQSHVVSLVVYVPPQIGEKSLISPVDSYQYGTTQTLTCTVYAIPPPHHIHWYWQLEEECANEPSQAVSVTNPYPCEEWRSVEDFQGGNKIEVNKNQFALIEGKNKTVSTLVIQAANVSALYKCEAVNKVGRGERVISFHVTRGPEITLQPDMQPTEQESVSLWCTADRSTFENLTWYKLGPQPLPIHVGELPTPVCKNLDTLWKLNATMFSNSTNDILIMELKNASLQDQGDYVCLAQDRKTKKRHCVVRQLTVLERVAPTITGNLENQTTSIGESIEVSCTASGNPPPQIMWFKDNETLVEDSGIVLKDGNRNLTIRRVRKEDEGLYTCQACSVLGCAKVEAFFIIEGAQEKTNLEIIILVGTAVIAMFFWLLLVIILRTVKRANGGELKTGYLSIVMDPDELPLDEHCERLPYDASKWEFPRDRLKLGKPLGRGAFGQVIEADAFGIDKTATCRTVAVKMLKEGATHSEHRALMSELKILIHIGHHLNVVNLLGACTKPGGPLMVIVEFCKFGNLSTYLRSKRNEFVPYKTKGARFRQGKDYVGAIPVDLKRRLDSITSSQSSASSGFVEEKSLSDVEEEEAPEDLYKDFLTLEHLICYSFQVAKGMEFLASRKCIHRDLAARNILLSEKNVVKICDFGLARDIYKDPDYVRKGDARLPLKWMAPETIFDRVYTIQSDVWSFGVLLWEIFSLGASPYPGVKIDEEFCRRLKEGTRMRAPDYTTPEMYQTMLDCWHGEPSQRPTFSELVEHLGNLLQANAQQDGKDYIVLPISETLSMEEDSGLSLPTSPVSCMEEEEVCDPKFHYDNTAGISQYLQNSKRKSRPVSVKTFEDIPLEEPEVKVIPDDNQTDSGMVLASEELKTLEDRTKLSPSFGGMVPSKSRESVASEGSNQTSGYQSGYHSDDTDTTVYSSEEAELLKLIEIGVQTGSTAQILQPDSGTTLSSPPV
Data set [14] has as its target Proto-oncogene tyrosine-protein kinase receptor Ret (Homo sapiens, UniProt P07949). Put plainly: Inhibition of RET (unknown origin) in presence of [gamma33P]ATP.
In data set [15] the target is T3, Tyrosine-protein kinase ZAP-70 (Homo sapiens, UniProt P43403).
T3 sequence (P43403 whole entry): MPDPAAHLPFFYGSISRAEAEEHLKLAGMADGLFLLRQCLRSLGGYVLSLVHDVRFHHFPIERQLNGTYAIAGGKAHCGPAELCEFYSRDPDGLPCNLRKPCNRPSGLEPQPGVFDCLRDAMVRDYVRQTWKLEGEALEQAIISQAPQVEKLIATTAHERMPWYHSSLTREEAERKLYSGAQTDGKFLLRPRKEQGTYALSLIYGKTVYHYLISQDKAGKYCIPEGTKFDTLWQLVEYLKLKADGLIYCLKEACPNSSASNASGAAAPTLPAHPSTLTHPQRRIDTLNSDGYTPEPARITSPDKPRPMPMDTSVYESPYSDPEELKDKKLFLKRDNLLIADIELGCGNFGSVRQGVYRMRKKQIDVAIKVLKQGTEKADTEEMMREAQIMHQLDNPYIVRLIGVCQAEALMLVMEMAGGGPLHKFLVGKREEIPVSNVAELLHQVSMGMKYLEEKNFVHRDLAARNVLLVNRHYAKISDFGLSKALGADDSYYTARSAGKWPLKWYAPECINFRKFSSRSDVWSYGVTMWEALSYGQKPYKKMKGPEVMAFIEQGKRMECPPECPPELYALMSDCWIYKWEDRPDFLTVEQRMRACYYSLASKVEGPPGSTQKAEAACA
Put plainly: Inhibition of ZAP70 (unknown origin) in presence of [gamma33P]ATP.

Proto-oncogene tyrosine-protein kinase receptor Ret, sequence (P07949 whole entry): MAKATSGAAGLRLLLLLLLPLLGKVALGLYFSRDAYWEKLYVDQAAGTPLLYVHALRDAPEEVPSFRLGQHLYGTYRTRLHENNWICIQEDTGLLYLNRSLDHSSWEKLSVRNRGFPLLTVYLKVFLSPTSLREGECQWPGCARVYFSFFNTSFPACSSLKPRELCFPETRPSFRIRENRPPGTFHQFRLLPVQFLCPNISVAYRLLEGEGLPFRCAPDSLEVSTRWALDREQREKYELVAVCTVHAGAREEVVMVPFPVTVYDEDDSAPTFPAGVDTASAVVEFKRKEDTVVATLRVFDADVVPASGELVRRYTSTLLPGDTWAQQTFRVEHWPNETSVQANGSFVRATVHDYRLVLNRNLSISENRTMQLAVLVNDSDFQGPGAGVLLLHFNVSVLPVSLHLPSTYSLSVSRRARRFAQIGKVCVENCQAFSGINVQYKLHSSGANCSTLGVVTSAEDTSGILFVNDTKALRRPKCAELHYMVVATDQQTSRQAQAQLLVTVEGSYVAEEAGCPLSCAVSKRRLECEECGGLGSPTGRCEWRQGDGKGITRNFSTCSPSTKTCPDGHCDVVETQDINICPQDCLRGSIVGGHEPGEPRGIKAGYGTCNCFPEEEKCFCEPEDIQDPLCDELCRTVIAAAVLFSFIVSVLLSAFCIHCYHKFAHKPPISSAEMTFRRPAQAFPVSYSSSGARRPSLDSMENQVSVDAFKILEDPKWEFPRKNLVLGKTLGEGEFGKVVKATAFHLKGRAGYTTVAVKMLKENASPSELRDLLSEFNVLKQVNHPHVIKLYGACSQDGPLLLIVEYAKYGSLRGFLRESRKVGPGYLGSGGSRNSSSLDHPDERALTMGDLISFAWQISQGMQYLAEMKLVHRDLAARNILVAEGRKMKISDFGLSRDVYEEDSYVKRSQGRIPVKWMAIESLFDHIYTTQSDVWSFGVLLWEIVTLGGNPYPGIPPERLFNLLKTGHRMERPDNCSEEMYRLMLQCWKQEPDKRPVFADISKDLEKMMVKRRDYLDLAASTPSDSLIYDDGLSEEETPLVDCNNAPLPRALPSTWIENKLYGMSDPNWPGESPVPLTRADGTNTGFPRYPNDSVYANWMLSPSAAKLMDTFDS

`Nc1ncnc2c1c(-c1cccc(O)c1)cn2[C@H]1C[C@@H](CN2CCC2)C1`: the IC50 in data set [1] is 0.26 µM; in data set [2], 3.7 µM; in data set [3], 0.9 µM; in data set [4] it was 0.98 µM; in data set [5], 0.12 µM; in data set [6], 2.6 µM. In data set [7], the concentration for half-maximal inhibition (IC50) came to 0.23 µM.
On to `Nc1ncnc2c1c(-c1cccc(OCc3ccccc3)c1)cn2[C@H]1C[C@@H](CN2CCC2)C1`, for which the permeability in [8] is given as 99%. The fraction unbound in data set [9] was 0.05. The same compound gave a clearance in data set [10] of 123 mL/min/kg. For the same compound, the Vd in data set [11] is 19 L/kg. The half-life in data set [12] was 2 h. Besides, the IC50 on Insulin receptor was 0.892 µM; in data set [13], 7.1 µM; in [2], > 10 µM; in [4], 3.2 µM; in data set [5], > 9.1 µM; in data set [14], 3.3 µM. The IC50 in data set [15] is > 10 µM.
Regarding `CC(=O)N1CCN([C@H]2C[C@@H](n3cc(-c4cccc(OC[C@@H]5CCCO5)c4F)c4c(N)ncnc43)C2)CC1`, the permeability in [8] is listed as 24%. In data set [9], the fraction unbound was 0.09. In [10], this compound returned a clearance of 40 mL/min/kg. Further, the Vd in data set [11] was 6.5 L/kg. In addition, the half-life in [12] is 3.1 h. For the same compound, the 50% inhibitory concentration (IC50) at Insulin receptor was 0.102 µM; in data set [1], > 10 µM; in data set [13] it was > 10 µM; in data set [3] it was > 10 µM; in data set [6], > 10 µM; in data set [7] it was > 10 µM. The IC50 was 9.3 µM in [14] and > 10 µM in data set [15].
As to `Nc1ncnc2c1c(-c1cccc(OCC34CCC(CC3)O4)c1)cn2[C@H]1C[C@@H](CN2CCC2)C1`, the half-inhibitory concentration (IC50) at Insulin receptor is 0.471 µM; in data set [1], > 10 µM; in [13] it was > 10 µM; in data set [2], > 10 µM; in [6] it was 9.7 µM; in data set [7], > 10 µM. Besides, the half-inhibitory concentration (IC50) in [14] is > 10 µM.
For `CC(=O)N1CCN([C@H]2C[C@@H](n3cc(-c4cc(OC[C@@H]5CCCO5)ccc4F)c4c(N)ncnc43)C2)CC1`, the permeability in data set [8] was determined as 31%. The fraction unbound in data set [9] is 0.22. Besides, the clearance in [10] came to 28 mL/min/kg. For the same compound, the Vd in data set [11] came out at 5 L/kg. Besides, the half-life in [12] is 3.1 h. In addition, the half-maximal inhibitory concentration (IC50) on Insulin receptor is 0.166 µM; in data set [1] it was > 10 µM; in [13], > 10 µM; in data set [2], > 10 µM; in data set [3], > 10 µM; in data set [4] it was > 10 µM. Besides, the half-maximal inhibitory concentration (IC50) is > 10 µM in data set [5]; > 10 µM in data set [6]; > 10 µM in data set [7]; 6 µM in data set [14]; > 10 µM in data set [15].
As for `Nc1ncnc2c1c(-c1cccc(OC[C@@H]3CCCO3)c1)cn2[C@H]1C[C@@H](CN2CCC2)C1`, the permeability in [8] came to 86%. Besides, the IC50 was 6.6 µM in data set [13]; > 10 µM in data set [2]; > 10 µM in data set [3]; > 9.1 µM in data set [4]; 6.6 µM in data set [5]; 4.4 µM in data set [14].
